From EP1018299A2, “Plant treatment agents” (BAYER AG, priority 1992, dated 1994)

Assay: UDOS (unilateral desorption from the outer surface): effect of accelerators on the mobility of 14C-labelled 2,4-D in isolated cuticles
Assay type: in vitro ADME, Citrus
Conditions: Abb. 11; for Zeitabhängigkeit der Effekte: effects increased with time; for Wirkungen (Effekt auf die Mobilität von 2,4-D): compared with Heptanol, Octanol, Nonanol and Decanol

CCCCCCO [Hexanol]
Zeitabhängigkeit der Effekte: stark zeitabhängig
Wirkungen (Effekt auf die Mobilität von 2,4-D): deutlich niedriger

CCCCCCCCCCCCO [Dodecanol]
Zeitabhängigkeit der Effekte: stark zeitabhängig
Wirkungen (Effekt auf die Mobilität von 2,4-D): deutlich niedriger
